These are literature values, as cited in patent US11555010B2, “Diamide antimicrobial agents” (BROWN UNIVERSITY, priority 2019, dated 2023).

The subject of this data set is LT. The following applies: cited from earlier work.

For the compound `CC1=N[C@@H]2[C@@H](O)[C@H](O)[C@@H](CO)O[C@@H]2S1` [NAG-thiazoline], the “binding to LT” value was “weak binder”.
